# Results from ChEMBL document CHEMBL1782050, “Discovery of new nanomolar peroxisome proliferator-activated receptor γ activators via elaborate ligand-based modeling” (Eur J Med Chem, 2011).
# Molecular target: T1, Peroxisome proliferator-activated receptor gamma (Homo sapiens, UniProt P37231)
# T1 sequence (P37231 whole entry): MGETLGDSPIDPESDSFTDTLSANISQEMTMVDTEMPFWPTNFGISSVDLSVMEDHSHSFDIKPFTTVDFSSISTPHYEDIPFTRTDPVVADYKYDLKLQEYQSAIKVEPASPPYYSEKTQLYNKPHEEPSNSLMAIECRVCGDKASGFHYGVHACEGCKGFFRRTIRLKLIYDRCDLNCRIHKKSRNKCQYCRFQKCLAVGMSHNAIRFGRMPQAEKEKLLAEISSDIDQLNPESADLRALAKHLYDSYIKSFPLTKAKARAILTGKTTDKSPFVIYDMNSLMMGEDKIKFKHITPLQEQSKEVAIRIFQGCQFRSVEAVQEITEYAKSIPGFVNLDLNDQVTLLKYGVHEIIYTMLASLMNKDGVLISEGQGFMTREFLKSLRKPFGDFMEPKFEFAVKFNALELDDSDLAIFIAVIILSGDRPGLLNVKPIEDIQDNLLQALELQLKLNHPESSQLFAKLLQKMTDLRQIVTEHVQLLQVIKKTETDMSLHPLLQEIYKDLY
# Type: functional, cell-based, HepG2
# Description: Agonist activity at PPARgamma receptor expressed in human HepG2 cells by PPRE-luciferase reporter gene assay
row,EC50,SMILES
1,0.0153 µM,Cc1ccc(S(=O)(=O)Oc2ccc(N(CC(=O)O)S(=O)(=O)c3ccc(C)cc3)cc2)cc1
2,220 µM,COC1=C(OC)Cc2c(cc[n+]3c(CCC(=O)O)c4cc(OC)c(OC)cc4cc23)C1
3,0.224 µM,COc1ccc(-c2nc(SCC(=O)O)n(-c3ccccn3)c2-c2ccc(OC)cc2)cc1
